Results from ChEMBL document CHEMBL5055679, “Discovery of a Novel Androgen Receptor Antagonist Manifesting Evidence to Disrupt the Dimerization of the Ligand-Binding Domain via Attenuating the Hydrogen-Bonding Network Between the Two Monomers” (J Med Chem, 2021).
Calls of active or inactive are those of the source. The calls are words filed in the database; no cut-off is given here.

Columns and labels:
[1] = target: T1, Androgen receptor (Homo sapiens, UniProt P10275); assay: Inhibition of AR transcriptional activity in human LNCaP cells harboring ARR2PB-eGFP incubated for 72 hrs by fluorescence assay; type: cell-based
T1 sequence (P10275 whole entry): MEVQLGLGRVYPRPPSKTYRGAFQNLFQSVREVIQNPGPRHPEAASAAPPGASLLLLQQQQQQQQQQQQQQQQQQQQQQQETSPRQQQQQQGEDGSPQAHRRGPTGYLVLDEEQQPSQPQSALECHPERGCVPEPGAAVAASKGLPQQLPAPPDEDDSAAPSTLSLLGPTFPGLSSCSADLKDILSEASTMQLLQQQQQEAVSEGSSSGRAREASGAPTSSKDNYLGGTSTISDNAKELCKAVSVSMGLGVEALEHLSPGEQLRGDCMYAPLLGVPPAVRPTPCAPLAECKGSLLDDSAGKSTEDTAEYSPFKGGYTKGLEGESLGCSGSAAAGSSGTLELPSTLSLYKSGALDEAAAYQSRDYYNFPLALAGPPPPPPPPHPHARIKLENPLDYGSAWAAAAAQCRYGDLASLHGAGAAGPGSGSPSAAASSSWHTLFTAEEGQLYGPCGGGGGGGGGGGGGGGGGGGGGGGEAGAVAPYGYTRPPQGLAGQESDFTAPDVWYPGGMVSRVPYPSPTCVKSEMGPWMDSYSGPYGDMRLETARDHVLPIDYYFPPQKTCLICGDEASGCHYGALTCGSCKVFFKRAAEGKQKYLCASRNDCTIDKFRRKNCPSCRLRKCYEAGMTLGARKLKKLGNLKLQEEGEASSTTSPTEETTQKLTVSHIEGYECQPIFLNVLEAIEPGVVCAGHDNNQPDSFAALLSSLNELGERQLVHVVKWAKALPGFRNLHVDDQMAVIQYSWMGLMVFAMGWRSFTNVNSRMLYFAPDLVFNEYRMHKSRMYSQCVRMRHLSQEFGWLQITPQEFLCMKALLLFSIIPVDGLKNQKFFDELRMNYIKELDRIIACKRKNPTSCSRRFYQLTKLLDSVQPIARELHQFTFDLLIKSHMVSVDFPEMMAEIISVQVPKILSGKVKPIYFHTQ

[2] = target: T2, Androgen receptor (Homo sapiens) (UniProt P10275); assay: Inhibition of AR transcriptional activity in human LNCaP cells harboring ARR2PB-eGFP at 10 uM incubated for 72 hrs by fluorescence assay; type: cell-based; conditions: filed as antagonist
T2 sequence (whole entry): T1 sequence (P10275 whole entry)

[3] = target: T2, Androgen receptor (Homo sapiens); assay: Binding affinity to GST-tagged AR ligand binding domain (unknown origin) at 10 uM measured after 4 hrs by fluorescence polarization assay
[4] = tested on: NIH3T3; assay: Cytotoxicity against mouse NIH3T3 cells assessed as reduction in cell viability incubated for 72 hrs by MTT assay; type: cell-based; conditions: nih3t3, 72 h
[5] = tested on: GES1; assay: Cytotoxicity against human GES1 cells assessed as reduction in cell viability incubated for 72 hrs by MTT assay; type: cell-based; conditions: ges1, 72 h
[6] = organism: Homo sapiens; assay: Antagonist activity at human androgen receptor N756A mutant at 10 uM by dual-Glo luciferase assay; conditions: filed as antagonist
[7] = tested on: LNCaP; assay: Inhibition of colony formation in human LANCaP cells after 2 weeks by crystal violet staining based assay; type: functional, cell-based; conditions: dose 2-20 µM
[8] = target: T1, Androgen receptor; assay: Inhibition of AR transcriptional activity in human LNCaP cells harboring ARR2PB-eGFP assessed as decrease in PSA level; type: cell-based, LN-18
[9] = target: T1, Androgen receptor
Description: Binding affinity to GST-tagged AR ligand binding domain (unknown origin) measured after 4 hrs by fluorescence polarization assay

SMILES	IC50 [1] [µM]	also measured
O=C(Nc1ccc2c(C(F)(F)F)cc(=O)oc2c1)c1cccc(Cl)c1	> 50	–
O=C(Nc1ccc2c(C(F)(F)F)cc(=O)oc2c1)c1ccccc1Cl	> 50	–
NC(=O)c1ccc(COc2ccc3c(C(F)(F)F)cc(=O)oc3c2)cc1	> 50	–
CCn1cc(C(=O)Nc2ccc3c(C(F)(F)F)cc(=O)oc3c2)c(C)n1	> 50	–
O=C(Nc1ccc2c(C(F)(F)F)cc(=O)oc2c1)c1ccccc1	> 50	–
C[C@H](Oc1cc(Cl)ccc1Cl)C(=O)Nc1ccc2c(C(F)(F)F)cc(=O)oc2c1	> 50	–
O=c1cc(C(F)(F)F)c2ccc(OCc3ccccc3)cc2o1	1.18	–
O=c1cc(C(F)(F)F)c2ccc(OCc3ccc(C(F)(F)F)cc3)cc2o1	0.89	–
CC(C(=O)Nc1ccccc1Cl)c1ccc(-c2ccccc2)c(F)c1 (stereo not drawn)	–	inhibition [2]: 40%; Activity [3]: inactive
COc1ccc(COc2ccc3c(C(F)(F)F)cc(=O)oc3c2)cc1	1.62	–
Cn1cc(C(=O)Nc2ccc3c(C(F)(F)F)cc(=O)oc3c2)c(Br)n1	> 50	–
O=c1cc(C(F)(F)F)c2ccc(OCc3ccccc3F)cc2o1	0.92	–
COC(=O)c1ccc(COc2ccc3c(C(F)(F)F)cc(=O)oc3c2)cc1	30.7	–
O=c1cc(C(F)(F)F)c2ccc(OCc3cccnc3)cc2o1	> 50	–
O=c1cc(C(F)(F)F)c2ccc(OCc3cccc(Br)c3)cc2o1	2.28	–
O=c1cc(C(F)(F)F)c2ccc(OCc3ccncc3)cc2o1	1.9	–
O=c1cc(C(F)(F)F)c2ccc(OCc3ccccc3Cl)cc2o1	0.41	–
CNC(=O)c1ccc(N2C(=S)N(c3ccc(C#N)c(C(F)(F)F)c3)C(=O)C2(C)C)cc1F [ENZALUTAMIDE]	–	Activity [4]: Non-Toxic; Activity [5]: Non-Toxic; Activity [6]: Active; inhibition [7]: Dose-dependent effect
O=c1cc(C(F)(F)F)c2ccc(OCc3ccccn3)cc2o1	> 50	–
Cc1ccc(COc2ccc3c(C(F)(F)F)cc(=O)oc3c2)cc1	0.61	–
O=c1cc(C(F)(F)F)c2ccc(OCc3ccc4ccccc4c3)cc2o1	> 50	–
CNC(=O)c1ccc(N2C(=S)N(c3cnc(C#N)c(C(F)(F)F)c3)C(=O)C23CCC3)cc1F	–	Activity [6]: Active
COC(=O)C(CC(C)C)Oc1ccc2c(C(F)(F)F)cc(=O)oc2c1 (stereo not drawn)	> 50	–
O=c1cc(C(F)(F)F)c2ccc(OCc3ccc(Cl)cc3)cc2o1	1.04	–
Cc1ccc(/N=C/c2ccccc2O)cc1Br	> 50	–
O=C(Nc1ccc2c(C(F)(F)F)cc(=O)oc2c1)c1ccccc1F	> 50	–
Cc1ccc(OC(=O)Nc2ccc3c(C(F)(F)F)cc(=O)oc3c2)c(C)c1	> 50	–

SMILES	IC50 [1] [µM]	also measured
CC(O)c1cc(C(=O)N[C@@H](C)Cn2ccc(-c3ccc(C#N)c(Cl)c3)n2)n[nH]1 (stereo partly drawn)	–	Activity [6]: Active
O=c1cc(C(F)(F)F)c2ccc(OCc3ccc(F)cc3)cc2o1	0.47	–
CC(C)c1ccc(COc2ccc3c(C(F)(F)F)cc(=O)oc3c2)cc1	9.26	–
O=C1C2CC=CCC2C(=O)N1c1cccc(C(F)(F)F)c1 (stereo not drawn)	–	inhibition [2]: 40%; Activity ([3]; filed as antagonist): Active
O=C(Oc1ccc2c(C(F)(F)F)cc(=O)oc2c1)C1CCCCC1	> 50	–
O=c1cc(C(F)(F)F)c2ccc(OCc3ccccc3Br)cc2o1	0.94	–
N#Cc1cccc(/N=C/c2ccccc2O)c1	> 50	–
COc1ccc([N+](=O)[O-])cc1COc1ccc2c(C(F)(F)F)cc(=O)oc2c1	> 50	–
Cn1cc(C(=O)Nc2ccc3c(C(F)(F)F)cc(=O)oc3c2)cn1	> 50	–
Cc1cccc(COc2ccc3c(C(F)(F)F)cc(=O)oc3c2)c1	1.4	–
O=c1cc(C(F)(F)F)c2ccc(/N=C/c3ccccc3O)cc2o1	5.57	IC50 [8]: 3.71 µM; inhibition [2]: 40%; Activity ([3]; filed as antagonist): Active; IC50 [9]: 1.66 µM
O=C(c1ccccc1)c1ccc(/N=C/c2ccccc2O)cc1	> 50	–
Cn1cc(C(=O)Nc2ccc3c(C(F)(F)F)cc(=O)oc3c2)c(I)n1	> 50	–
Cc1ccc(NCc2ccccc2OCc2cccc3ccccc23)cc1	–	inhibition [2]: 40%; Activity [3]: inactive
Oc1ccccc1/C=N/c1ccc2oc(-c3ccccc3)nc2c1	> 50	–
O=c1cc(C(F)(F)F)c2ccc(OCc3ccc(-c4ccccc4)cc3)cc2o1	> 50	–
CCOC(=O)C(CC)Oc1ccc2c(C(F)(F)F)cc(=O)oc2c1 (stereo not drawn)	> 50	–
O=C(Nc1ccc2c(C(F)(F)F)cc(=O)oc2c1)c1nc2ncccn2n1	> 50	–
Oc1ccccc1/C=N/c1ccc(Cl)c(Cl)c1	> 50	–
O=c1cc(C(F)(F)F)c2ccc(OCc3c(F)cccc3Cl)cc2o1	0.78	–
O=c1cc(C(F)(F)F)c2ccc(OCc3ccc([N+](=O)[O-])cc3)cc2o1	> 50	–
CC(=O)c1ccc(COc2ccc3c(C(F)(F)F)cc(=O)oc3c2)cc1	> 50	–
O=c1cc(C(F)(F)F)c2ccc(OCc3cc4c(cc3Cl)OCO4)cc2o1	1.47	–
O=c1cc(C(F)(F)F)c2ccc(OCc3ccc4c(c3)OCO4)cc2o1	9.37	–
Cc1cccc(C(=O)Nc2ccc3c(C(F)(F)F)cc(=O)oc3c2)c1	> 50	–
O=c1cc(C(F)(F)F)c2ccc(OCc3ccc(OC(F)(F)F)cc3)cc2o1	25.1	–
